Structures can show the parent of a compound that is named as a salt.
Biological target: T1, full-length human PRMT1 isoform 1 (GST-tagged) (Homo sapiens, UniProt Q99873)
T1 construct: GST-tagged PRMT1 was eluted with 50 mM Tris, 2 mM glutathione, pH 7.8, dialysed in buffer A and concentrated; made in house; host or cells: High Five insect cells (baculovirus)
Test: PRMT1 biochemical assay (3H-SAM Flashplate, histone H4 36-50 peptide)
Settings: 0.5 nM PRMT1, 30 min preincubation, 20 nM peptide
How it was run: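 GST-PRMT1 (0.5 nM) preincubated 30 min at room temperature with compound in bicine buffer pH 7.6. Reaction then run with 200 nM 3H-SAM plus 1.5 uM SAM and 20 nM biotinylated H4 36-50 peptide, 2% DMSO. Stopped with excess cold SAM, and methylated peptide captured on streptavidin Flashplates for counting; % inhibition versus DMSO and 1 mM SAH controls, 3- or 4-parameter fit.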

T1 sequence (Q99873 with tags, fused parts or gaps): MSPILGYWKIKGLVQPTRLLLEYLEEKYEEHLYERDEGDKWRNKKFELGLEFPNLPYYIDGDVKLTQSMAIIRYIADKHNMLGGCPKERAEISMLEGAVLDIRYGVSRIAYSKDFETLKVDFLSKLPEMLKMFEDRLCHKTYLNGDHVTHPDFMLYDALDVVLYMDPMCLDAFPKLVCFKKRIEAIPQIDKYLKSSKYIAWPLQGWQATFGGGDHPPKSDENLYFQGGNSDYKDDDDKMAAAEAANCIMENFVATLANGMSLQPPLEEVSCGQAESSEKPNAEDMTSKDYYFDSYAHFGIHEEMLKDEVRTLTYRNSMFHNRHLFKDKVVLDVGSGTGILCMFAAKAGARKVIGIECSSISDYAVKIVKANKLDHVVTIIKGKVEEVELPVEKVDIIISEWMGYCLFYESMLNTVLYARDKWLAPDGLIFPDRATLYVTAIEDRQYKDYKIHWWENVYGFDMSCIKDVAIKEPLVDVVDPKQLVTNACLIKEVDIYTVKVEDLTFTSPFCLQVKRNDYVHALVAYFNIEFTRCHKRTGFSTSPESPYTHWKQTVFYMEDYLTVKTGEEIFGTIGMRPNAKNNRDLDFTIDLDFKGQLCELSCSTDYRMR

IC50: 7.33 nM
Compound: CNCCN(C)Cc1c[nH]nc1[C@H]1CC[C@]2(CCCCO2)CC1 [compound 127, methyl([2-[methyl([3-[(6s,9r)-1-oxaspiro[5.5]undecan-9-yl]-1H-pyrazol-4-yl]methyl)amino]ethyl])amine bistrifluoroacetic acid salt]

— patent publication US20170291905A1, “ARGININE […] INHIBITORS AND USES THEREOF” (Epizyme, Inc., priority 2014, published 2017)
